Activity data for one compound are collected here from ChEMBL document CHEMBL4257551, “Glycyrrhizic acid from licorice down-regulates inflammatory responses via blocking MAPK and PI3K/Akt-dependent NF-κB signalling pathways in TPA-induced skin inflammation” (2018).

Common to all, as to format: functional
Assay [1] relates to Mus musculus. The experiment in a line: Antiinflammatory activity against TPA-induced ear edema in BALB/c mouse assessed as weight of ear punches at 5 mM administered topically for 15 mins prior to TPA challenge and measured after 24 hrs (reference value: 12.1 +/- 0.2 mg).
Assay [2] concerns Mus musculus. The experiment in a line: Antiinflammatory activity against TPA-induced ear edema in BALB/c mouse assessed as weight of ear punches at 5 mM administered topically for 15 mins prior to TPA challenge and measured after 48 hrs (reference value: 11.4 +/- 0.3 mg).
The test system of assay [3] is Mus musculus. The experiment in a line: Antiinflammatory activity against TPA-induced ear edema in BALB/c mouse assessed as weight of ear punches at 5 mM administered topically for 15 mins prior to TPA challenge and measured after 12 hrs (reference value: 12.4 +/- 0.1 mg).
The subject of assay [4] is Mus musculus. As to the kind of experiment: Antiinflammatory activity against TPA-induced ear edema in BALB/c mouse assessed as weight of ear punches at 5 mM administered topically for 15 mins prior to TPA challenge and measured after 3 hrs (reference value: 8.3 +/- 0.1 mg).
Assay [5] has as its system Mus musculus. The experiment in a line: Antiinflammatory activity against TPA-induced ear edema in BALB/c mouse assessed as weight of ear punches at 5 mM administered topically for 15 mins prior to TPA challenge and measured after 6 hrs (reference value: 12.5 +/- 0.3 mg).

On to `C[C@]12C=CC(=O)C=C1CC[C@@H]1[C@@H]2[C@@H](O)C[C@@]2(C)[C@H]1CC[C@]2(O)C(=O)CO` [PREDNISOLONE], for which the Activity in assay [1] stood at 5.6 mg; in assay [2], 5.6 mg; in assay [3] it was 5.7 mg; in assay [4] it was 5.4 mg; in assay [5], 5.6 mg.
